Legend:
Type in all cases: functional
MDA-MB-435 = assay: Growth inhibition of human MDA-MB-435 cells after 48 hrs by SRB assay; conditions: MDA-MB-435, 48 h
[1] = Growth inhibition of human Hs578T cells after 48 hrs by SRB assay; conditions: Hs-578T
MOLT-4 = assay: Growth inhibition of human MOLT4 cells after 48 hrs by SRB assay; conditions: MOLT-4, 48 h
UACC-62 = assay: Growth inhibition of human UACC62 cells after 48 hrs by SRB assay; conditions: UACC-62, 48 h
NCI-H522 = assay: Growth inhibition of human NCI-H522 cells after 48 hrs by SRB assay; conditions: NCI-H522, 48 h
OVCAR-3 = assay: Growth inhibition of human OVCAR3 cells after 48 hrs by SRB assay; conditions: OVCAR-3, 48 h
HL-60(TB) = assay: Growth inhibition of human HL-60(TB) cells after 48 hrs by SRB assay; conditions: HL-60, 48 h
LOX IMVI = assay: Growth inhibition of human LOXIMVI cells after 48 hrs by SRB assay
IGROV-1 = assay: Growth inhibition of human IGROV1 cells after 48 hrs by SRB assay; conditions: IGROV-1, 48 h
A549 = assay: Growth inhibition of human A549 cells after 48 hrs by SRB assay; conditions: A549, 48 h
M14 = assay: Growth inhibition of human M14 cells after 48 hrs by SRB assay; conditions: M14, 48 h
NCI-H226 = assay: Growth inhibition of human NCI-H226 cells after 48 hrs by SRB assay; conditions: NCI-H226, 48 h
[2] = Growth inhibition of human UACC257 cells after 48 hrs by SRB assay; conditions: UACC-257, 48 h
Malme-3M = assay: Growth inhibition of human MALME-3M cells after 48 hrs by SRB assay
SK-MEL-28 = assay: Growth inhibition of human SK-MEL-28 cells after 48 hrs by SRB assay; conditions: SK-MEL-28, 48 h

| SMILES | GI50 (MDA-MB-435) [nM] | GI50 [1] [nM] | GI50 (MOLT-4) [nM] | GI50 (UACC-62) [nM] | GI50 (NCI-H522) [nM] | GI50 (OVCAR-3) [nM] | GI50 (HL-60(TB)) [nM] | GI50 (LOX IMVI) [nM] | GI50 (IGROV-1) [nM] | GI50 (A549) [nM] | GI50 (M14) [nM] | GI50 (NCI-H226) [nM] | GI50 [2] [nM] | GI50 (Malme-3M) [nM] | GI50 (SK-MEL-28) [nM] |
| --- | --- | --- | --- | --- | --- | --- | --- | --- | --- | --- | --- | --- | --- | --- | --- |
| COc1ccc(-c2nn[nH]c2-c2cc(OC)c(OC)c(OC)c2)cc1 | < 10 | < 10 | 12 | < 10 | < 10 | < 10 | < 10 | < 10 | < 10 | < 10 | < 10 | 51 | < 10 |  |  |
| COc1ccc(-c2nn[nH]c2-c2cc(OC)c3c(c2OC)OCO3)cc1 | 193 | 1350 | 529 | 420 | 301 | 363 | 307 | 547 | 720 | 532 | 341 | 15200 | 595 | 766 | 1780 |

— ChEMBL document CHEMBL3102739, “Synthesis and antiproliferative activity of conformationally restricted 1,2,3-triazole analogues of combretastatins in the sea urchin embryo model and against human cancer cell lines” (Bioorg Med Chem, 2014)
